# Results published in ChEMBL document CHEMBL6127159, “A Bifunctional Sulfide Donor Approach for Ischemic Stroke: Leveraging Butylphthalide as a Carrier for Sulfide Prodrug” (J Med Chem, 2024).
# Activity calls are given as the source filed them. The rule behind the calls is not given here.
# Key:
# [1] = Drug concentration in Sprague-Dawley rat at 80 umol/kg, iv measured after 1 min by LC-MS/MS analysis; type: ADME, organism-based; details: in vivo
# [2] = Drug metabolism in Sprague-Dawley rat assessed as 3-butylisobenzofuran-1(3H)-one level at 80 umol/kg, iv measured after 1 min by LC-MS/MS analysis; type: ADME, organism-based; details: in vivo, dose 80 µmol/kg
# cells = type: functional, PC12; details: Homo sapiens, PC-12
# [3] = Drug concentration in Sprague-Dawley rat plasma at 80 umol/kg, iv measured after 1 min by LC-MS/MS analysis; type: ADME, organism-based; details: dose 80 µmol/kg
# [4] = Cytotoxicity against […] PC12 cells upto 500 uM; type: toxicity, cell-based; details: pc12, 500 µM
# [5] = Drug metabolism in Sprague-Dawley rat assessed as Sodium 2-(1-acetoxypentyl)benzothioate level at 80 umol/kg, iv measured after 1 min by LC-MS/MS analysis; type: ADME, organism-based; details: in vivo, dose 80 µmol/kg
# [6] = Drug metabolism in Sprague-Dawley rat plasma assessed as 3-butylisobenzofuran-1(3H)-thione level at 80 umol/kg, iv measured after 1 min by LC-MS/MS analysis; type: ADME, organism-based; details: in vivo, dose 80 µmol/kg
# [7] = Downregulation of MDA level in MCAO induced C57BL/6J mouse at 100 umol/kg measured after 24 hrs (reference value: 15.1 +/- 0.5 nmol/mg); type: functional; details: dose 100 µmol/kg
# Mus musculus [8] = assay: Induction of iron-sulfur cluster related genes transcriptional level in MCAO induced C57BL/6J mouse at 100 umol/kg measured after 24 hrs; type: functional, organism-based; details: dose 100.0 µmol/kg
# Mus musculus [9] = assay: Neuroprotective activity against MCAO induced C57BL/6J mouse assessed as reduction in infarct area at 100 umol/kg measured after 24 hrs by TTC staining based analysis; type: functional; design: scale not given: the % may be the effect or the level left; details: dose 100 µmol/kg
# [10] = Drug metabolism in Sprague-Dawley rat plasma assessed as 2-(1-acetoxypentyl)benzoic acid level at 80 umol/kg, iv measured after 1 min by LC-MS/MS analysis; type: ADME, organism-based; details: in vivo, dose 80 µmol/kg
# Liver carboxylesterase [11] = target: T1, Liver carboxylesterase (Sus scrofa, UniProt Q29550); assay: Drug metabolism in PBS assessed as porcine liver esterase mediated compound hydrolysis by measuring half life at 500 uM by UPLC method; type: ADME; details: pig
# T1 sequence (Q29550 whole entry): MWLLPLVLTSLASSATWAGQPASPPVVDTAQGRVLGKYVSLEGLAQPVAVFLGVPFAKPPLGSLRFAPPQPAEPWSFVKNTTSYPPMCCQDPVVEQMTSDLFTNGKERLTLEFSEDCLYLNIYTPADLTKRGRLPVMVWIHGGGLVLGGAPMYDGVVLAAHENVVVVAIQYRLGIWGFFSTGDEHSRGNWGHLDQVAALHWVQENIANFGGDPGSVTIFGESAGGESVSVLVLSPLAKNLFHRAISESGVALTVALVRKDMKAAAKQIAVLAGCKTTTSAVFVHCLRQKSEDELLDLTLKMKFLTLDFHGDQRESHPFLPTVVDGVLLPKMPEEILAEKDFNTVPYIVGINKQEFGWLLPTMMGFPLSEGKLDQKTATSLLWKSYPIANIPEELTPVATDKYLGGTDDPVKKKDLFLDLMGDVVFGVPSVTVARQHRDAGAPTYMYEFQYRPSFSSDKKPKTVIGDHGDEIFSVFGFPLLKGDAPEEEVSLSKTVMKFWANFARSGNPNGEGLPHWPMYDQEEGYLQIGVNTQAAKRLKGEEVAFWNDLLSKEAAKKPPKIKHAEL
# Mus musculus [12] = species on record: Mus musculus; assay: Neuroprotective activity against MCAO induced C57BL/6J mouse cerebral ischemia model assessed as reduction in nuclear leakage; type: functional, organism-based
# Mus musculus [13] = assay: Downregulation of abnormal ion channel activation related genes expression in MCAO induced C57BL/6J mouse at 100 umol/kg measured after 24 hrs by GSEA; type: functional; details: dose 100.0 µmol/kg
# Mus musculus [14] = species on record: Mus musculus; assay: Neuroprotective activity against MCAO induced C57BL/6J mouse cerebral ischemia model assessed as upregulation of genes related to dopaminergic neuron differentiation by GSEA; type: functional, organism-based
# Mus musculus [15] = species on record: Mus musculus; assay: Neuroprotective activity against MCAO induced C57BL/6J mouse cerebral ischemia model assessed as cleaved caspase-3 expression by immunofluorescence assay; type: functional, organism-based
# Liver carboxylesterase [16] = target: T1, Liver carboxylesterase; assay: Drug metabolism in PBS assessed as porcine liver esterase mediated H2S release at 500 uM by methylene blue assay; type: ADME; details: pig, isolated protein
# PC12 = assay: Neuroprotective activity against ischemia/hypoxia induced cell injury in […] PC12 cells assessed as increase in cell viability at 10 to 20 uM by MTT assay; type: functional, cell-based; details: dose 10-20 µM
# Mus musculus [17] = assay: Induction of iron-sulfur cluster related genes transcriptional level in MCAO induced C57BL/6J mouse at 100 umol/kg measured after 24 hrs by GSEA; type: functional, organism-based; details: dose 100.0 µmol/kg
# Mus musculus [18] = species on record: Mus musculus; assay: Neuroprotective activity against MCAO induced C57BL/6J mouse cerebral ischemia model assessed as appearance of high density nissl bodies in thalamic region; type: functional, organism-based
# Mus musculus [19] = assay: Downregulation of oxidative stress related genes expression in MCAO induced C57BL/6J mouse at 100 umol/kg measured after 24 hrs by GSEA; type: functional, organism-based; details: dose 100.0 µmol/kg
# Mus musculus [20] = species on record: Mus musculus; assay: Neuroprotective activity against MCAO induced C57BL/6J mouse cerebral ischemia model assessed as upregulation of genes related to neuroprotection by GSEA; type: functional, organism-based
# Mus musculus [21] = species on record: Mus musculus; assay: Neuroprotective activity against MCAO induced C57BL/6J mouse cerebral ischemia model assessed as NeuN expression by immunofluorescence assay; type: functional, organism-based
# Mus musculus [22] = species on record: Mus musculus; assay: Neuroprotective activity against MCAO induced C57BL/6J mouse cerebral ischemia model assessed as appearance of high density nissl bodies in hippocampal region; type: functional, organism-based
# [23] = Drug metabolism in Sprague-Dawley rat assessed as Sodium 2-(1-((3-methylbutanoyl)oxy)pentyl)benzothioate level at 80 umol/kg, iv measured after 1 min by LC-MS/MS analysis; type: ADME, organism-based; details: in vivo, dose 80 µmol/kg
compound,measurement,setting,value
CCCCC1OC(=S)c2ccccc21 (stereo not given),concentration at 1 min,"[1]; Sprague-Dawley, 80 umol/kg, read-out: Drug uptake",7.5 µg/mL
same,Drug metabolism,[2],1.2 µg/mL
CCCCC(OC(C)=O)c1ccccc1C(=O)SSCC(NC(C)=O)C(=O)O (stereo not given),viability at 10 µM,cells,86.2%
same,concentration at 1 min,[3],151 µg/mL
same,Activity,[4],Non-Toxic
same,Drug metabolism,[5],105.9 µg/mL
same,Drug metabolism,[6],34.4 µg/mL
same,Activity,[7],9.9 nmol/mg
same,Activity,Mus musculus [8],inactive
same,Activity,Mus musculus [9],20.6%
same,Drug metabolism,[10],44.4 µg/mL
same,half-life at 500 µM,Liver carboxylesterase [11],2.98 h
CCCCC(OC(C)=O)c1ccccc1C(=O)O (stereo not given),viability at 10 µM,cells,86.4%
same,Activity,[7],9.4 nmol/mg
same,Activity,Mus musculus [9],20.6%
CCCCC(OC(=O)C(C)C)c1ccccc1C(=O)SSCC(NC(C)=O)C(=O)[O-].[Na+] (stereo not given),half-life at 500 µM,Liver carboxylesterase [11],0.225 h
CCCCC(OC(C)=O)c1ccccc1C(=O)[S-].[Na+] (stereo not given),Activity,Mus musculus [12],Active
same,Activity,Mus musculus [13],Active
same,viability at 10 µM,cells,92.5%
same,concentration at 1 min,[3],216 µg/mL
same,Activity,[4],Non-Toxic
same,Activity,Mus musculus [14],Active
same,Drug metabolism,[6],35.5 µg/mL
same,Activity,Mus musculus [15],Active
same,Activity,[7],6.3 nmol/mg
same,Activity,Mus musculus [8],Active
same,Activity,Mus musculus [9],13.8%
same,Drug metabolism,Liver carboxylesterase [16],2.8 µM
same,Activity,PC12,Active
same,Drug metabolism,[10],23.6 µg/mL
same,Activity,Mus musculus [17],Active
same,Activity,Mus musculus [18],Active
same,Activity,Mus musculus [19],Active
same,half-life at 500 µM,Liver carboxylesterase [11],23.3 h
same,Activity,Mus musculus [20],Active
same,Activity,Mus musculus [21],Active
same,Activity,Mus musculus [22],Active
CCCCC(OC(=O)C(C)C)c1ccccc1C(=O)[S-].[Na+] (stereo not given),half-life at 500 µM,Liver carboxylesterase [11],15 h
CCCCC(OC(=O)CC)c1ccccc1C(=O)SSCC(NC(C)=O)C(=O)[O-].[Na+] (stereo not given),half-life at 500 µM,Liver carboxylesterase [11],0.333 h
CCCCC(OC(=O)CC(C)C)c1ccccc1C(=O)[S-].[Na+] (stereo not given),Drug metabolism,Liver carboxylesterase [16],31 µM
same,half-life at 500 µM,Liver carboxylesterase [11],6.42 h
CCCCC(OC(=O)CC(C)C)c1ccccc1C(=O)SSCC(NC(C)=O)C(=O)[O-].[Na+] (stereo not given),Drug metabolism,[23],201.1 µg/mL
same,Drug uptake,"[1]; iv, 1 min, dose 80 µmol/kg",Not Active
same,Drug metabolism,[10],41 µg/mL
same,half-life at 500 µM,Liver carboxylesterase [11],0.22 h
